How the values were obtained:
Assay in all cases: relative viability (nuclei count vs DMSO), 5 days (fraction); higher = more cells survive
AZD6482 + OSI-027 = compound: Cc1cc([C@@H](C)Nc2ccccc2C(=O)O)c2nc(N3CCOCC3)cc(=O)n2c1 [AZD6482] + COc1cccc2cc(-c3nc([C@H]4CC[C@H](C(=O)O)CC4)n4ncnc(N)c34)[nH]c12 [OSI-027] (partner 0.5 µM)
Procedure, shortened: (§1)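 Dosing by pin tool came one day after lung cancer cell lines were seeded in 1536-well plates, using either one drug or a fixed anchor-drug dose plus five library-drug doses (not always all listed) in √10 steps. After 5 days, nuclei were counted on 4× images. Relative viability is treated-well nuclei count divided by vehicle-well nuclei count, and values are medians of duplicate plates.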

AZD6482 + Trametinib = compound: Cc1cc([C@@H](C)Nc2ccccc2C(=O)O)c2nc(N3CCOCC3)cc(=O)n2c1 [AZD6482] + CC(=O)Nc1cccc(-n2c(=O)n(C3CC3)c(=O)c3c(Nc4ccc(I)cc4F)n(C)c(=O)c(C)c32)c1 [Trametinib] (partner 0.02 µM)
Procedure, shortened: as §1

[1] = compound: COc1cc2nc(N3CCCN(C)CC3)nc(NC3CCN(Cc4ccccc4)CC3)c2cc1OC + O=C(c1cc(Cc2n[nH]c(=O)c3ccccc23)ccc1F)N1CCN(C(=O)C2CC2)CC1 [Olaparib] (partner 8 µM)
Procedure, shortened: as §1

AZD6482 + Crizotinib = compound: Cc1cc([C@@H](C)Nc2ccccc2C(=O)O)c2nc(N3CCOCC3)cc(=O)n2c1 [AZD6482] + C[C@@H](Oc1cc(-c2cnn(C3CCNCC3)c2)cnc1N)c1c(Cl)ccc(F)c1Cl [Crizotinib] (partner 1 µM)
Procedure, shortened: as §1

Row | Cell Line | relative viability (AZD6482 + OSI-027; first compound 0.08 µM) | relative viability (AZD6482 + OSI-027; first compound 0.253 µM) | relative viability (AZD6482 + OSI-027; first compound 0.8 µM) | relative viability (AZD6482 + OSI-027; first compound 2.53 µM) | relative viability (AZD6482 + OSI-027; first compound 8 µM) | relative viability (AZD6482 + Trametinib; first compound 0.08 µM) | relative viability (AZD6482 + Trametinib; first compound 0.253 µM) | relative viability (AZD6482 + Trametinib; first compound 0.8 µM) | relative viability (AZD6482 + Trametinib; first compound 8 µM) | relative viability ([1]; first compound 0.6325 µM) | relative viability ([1]; first compound 6.325 µM) | relative viability (AZD6482 + Trametinib; first compound 2.53 µM) | relative viability ([1]; first compound 0.2 µM) | relative viability ([1]; first compound 2 µM) | relative viability (AZD6482 + Crizotinib; first compound 0.08 µM) | relative viability (AZD6482 + Crizotinib; first compound 0.253 µM) | relative viability (AZD6482 + Crizotinib; first compound 0.8 µM) | relative viability (AZD6482 + Crizotinib; first compound 2.53 µM) | relative viability (AZD6482 + Crizotinib; first compound 8 µM)
1 | NCI-H1648 | 0.297 | 0.268 | 0.245 | 0.228 | 0.276 | 0.483 | 0.434 | 0.491 | 0.365 | 0.713 | 1.01 | – | – | – | – | – | – | – | –
2 | SK-MES-1 | 0.502 | 0.554 | 0.417 | 0.302 | 0.293 | 0.394 | 0.454 | 0.414 | 0.291 | 0.669 | 0.0414 | 0.294 | 0.66 | 0.648 | 0.854 | 0.838 | 0.86 | 0.419 | 0.439
3 | HCC-366 | 1.01 | 0.801 | 0.906 | 0.574 | 0.515 | 0.266 | 0.279 | 0.286 | 0.193 | 0.304 | 0.294 | 0.182 | 0.451 | 0.376 | 0.304 | 0.447 | 0.395 | 0.453 | 0.472
4 | 201T | 0.657 | 0.663 | 0.631 | 0.462 | 0.601 | 0.694 | 0.698 | 0.704 | 0.708 | 0.853 | 0.802 | 0.653 | 0.849 | 0.875 | 0.998 | 0.991 | 1.09 | 0.944 | 1.04
5 | HCC-827 | 0.709 | 0.658 | 0.8 | 0.451 | 0.48 | 0.47 | 0.462 | 0.473 | 0.251 | 0.626 | 0.622 | 0.346 | 0.753 | 0.685 | 0.894 | 0.958 | 0.936 | 0.885 | 0.63
6 | NCI-H647 | 0.459 | 0.513 | 0.612 | 0.335 | 0.315 | 0.32 | 0.367 | 0.333 | 0.209 | 0.443 | 0.242 | 0.254 | 0.517 | 0.537 | 0.902 | – | 0.748 | 0.479 | 0.648
7 | NCI-H2023 | 0.398 | 0.336 | 0.341 | 0.237 | 0.245 | 0.455 | 0.52 | 0.547 | 0.389 | 0.476 | 0.177 | 0.28 | 0.424 | 0.48 | 0.535 | 0.615 | 0.509 | 0.411 | 0.494
8 | NCI-H520 | 0.214 | 0.176 | 0.211 | 0.178 | 0.178 | 0.567 | 0.463 | 0.433 | 0.26 | 0.321 | 0.144 | 0.201 | 0.332 | 0.324 | 0.623 | 0.615 | 0.523 | – | 0.4
9 | RERF-LC-KJ | 0.547 | 0.496 | 0.458 | 0.497 | 0.399 | 0.767 | 0.764 | 0.74 | 0.584 | 0.898 | 0.637 | 0.682 | 0.857 | 1.04 | 0.745 | 0.776 | 0.832 | 0.818 | 0.676
10 | A-427 | 0.458 | 0.348 | 0.52 | – | 0.423 | 0.628 | 0.783 | 0.691 | 0.612 | 0.705 | 0.768 | 0.548 | 0.708 | 0.833 | 0.747 | 0.858 | 0.788 | 0.732 | 0.962
11 | NCI-H441 | 0.669 | 0.4 | 0.627 | – | 0.508 | 0.422 | 0.435 | 0.39 | 0.312 | 0.495 | 0.551 | – | 0.566 | 0.691 | 0.651 | 0.689 | 0.782 | 0.443 | 0.507
12 | NCI-H1703 | – | – | – | – | – | – | – | – | – | 0.334 | 0.394 | – | 0.395 | 0.365 | 0.583 | 0.505 | 0.396 | 0.245 | 0.343
13 | NCI-H1792 | 0.662 | 0.677 | 0.73 | 0.511 | 0.406 | 0.322 | 0.377 | 0.41 | 0.283 | 0.409 | 0.441 | 0.251 | 0.49 | 0.485 | 0.909 | 0.828 | 0.983 | 0.717 | 0.444
14 | Calu-6 | – | – | – | – | – | – | – | – | – | 0.542 | 0.537 | – | 0.598 | 0.591 | 0.701 | 0.741 | 0.796 | 0.639 | 0.782
15 | SK-LU-1 | – | 0.319 | 0.347 | 0.246 | 0.214 | – | 0.418 | 0.495 | 0.453 | 0.384 | 0.366 | 0.399 | 0.45 | 0.564 | – | 0.908 | 0.931 | 0.696 | 0.886
16 | PC-3 [JPC-3] | 0.654 | 0.732 | 0.723 | 0.502 | 0.633 | 0.556 | 0.694 | 0.65 | 0.55 | 1.24 | 0.966 | 0.564 | 1.2 | 1.31 | 0.926 | 0.988 | 0.952 | 0.862 | 1.02
